In the supplement of paper PMC8612539:
≈ marks a conversion by molar mass, not a printed value.

Test system: Escherichia coli
Assay: minimum inhibitory concentration (MIC)
Procedure: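 Broth microdilution MIC (Sensititre BOPO7F bovine plate, CLSI methods) of 19 antimicrobials against field isolates of P. multocida, M. haemolytica, H. somni (deep nasopharyngeal swabs) and E. coli, Enterococcus spp. (rectal swabs) from weaned dairy heifers. Incubation 16-24 h at 35 C. MIC is the lowest concentration preventing visible growth. Values with <= or > lie at the tested range limits. Trimethoprim-sulfamethoxazole is given as the trimethoprim component of a 1:19 mixture.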

COc1cc(NS(=O)(=O)c2ccc(N)cc2)nc(OC)n1 [sulfadimethoxine]
Conditions	minimum inhibitory concentration [µg/mL]
isolate (source animal id): 8	> 256
isolate (source animal id): 9	> 256
isolate (source animal id): 10	> 256
isolate (source animal id): 11	≤ 256
isolate (source animal id): 12	> 256
isolate (source animal id): 13	≤ 256
isolate (source animal id): 14	> 256
isolate (source animal id): 15	≤ 256
isolate (source animal id): 16	> 256
isolate (source animal id): 98	≤ 256
isolate (source animal id): 99	≤ 256
isolate (source animal id): 100	> 256
isolate (source animal id): 101	> 256
isolate (source animal id): 102	> 256
isolate (source animal id): 103	> 256
isolate (source animal id): 104	> 256
isolate (source animal id): 105	> 256
isolate (source animal id): 106	> 256
isolate (source animal id): 107	> 256
isolate (source animal id): 108	> 256
isolate (source animal id): 109	≤ 256
isolate (source animal id): 110	> 256
isolate (source animal id): 111	> 256
isolate (source animal id): 112	> 256
isolate (source animal id): 113	> 256
isolate (source animal id): 114	≤ 256
isolate (source animal id): 115	> 256
isolate (source animal id): 116	> 256
isolate (source animal id): 117	> 256
isolate (source animal id): 118	≤ 256
isolate (source animal id): 119	> 256
isolate (source animal id): 120	> 256
isolate (source animal id): 121	> 256
isolate (source animal id): 122	> 256
isolate (source animal id): 123	> 256
isolate (source animal id): 124	> 256
isolate (source animal id): 125	> 256
isolate (source animal id): 126	> 256
isolate (source animal id): 127	> 256
isolate (source animal id): 128	> 256
isolate (source animal id): 129	> 256
isolate (source animal id): 130	> 256
isolate (source animal id): 131	> 256
isolate (source animal id): 132	> 256
isolate (source animal id): 133	> 256
isolate (source animal id): 134	> 256
isolate (source animal id): 135	≤ 256
isolate (source animal id): 136	> 256
isolate (source animal id): 137	≤ 256
isolate (source animal id): 138	> 256
isolate (source animal id): 139	> 256
isolate (source animal id): 140	≤ 256
isolate (source animal id): 141	> 256
isolate (source animal id): 142	> 256
isolate (source animal id): 143	> 256
isolate (source animal id): 144	> 256
isolate (source animal id): 145	> 256
isolate (source animal id): 146	> 256
isolate (source animal id): 147	> 256
isolate (source animal id): 148	> 256
isolate (source animal id): 149	> 256
isolate (source animal id): 150	> 256
isolate (source animal id): 151	> 256
isolate (source animal id): 152	> 256
isolate (source animal id): 153	> 256
isolate (source animal id): 154	> 256
isolate (source animal id): 155	> 256
isolate (source animal id): 156	> 256
isolate (source animal id): 157	> 256
isolate (source animal id): 158	> 256
isolate (source animal id): 159	> 256
isolate (source animal id): 160	> 256
isolate (source animal id): 161	> 256
isolate (source animal id): 162	> 256
isolate (source animal id): 163	> 256
isolate (source animal id): 164	> 256
isolate (source animal id): 165	> 256
isolate (source animal id): 166	> 256
isolate (source animal id): 167	> 256
isolate (source animal id): 168	≤ 256
isolate (source animal id): 169	≤ 256
isolate (source animal id): 170	> 256
isolate (source animal id): 171	≤ 256
isolate (source animal id): 172	≤ 256
isolate (source animal id): 173	> 256
isolate (source animal id): 174	≤ 256
isolate (source animal id): 175	> 256
isolate (source animal id): 176	> 256
isolate (source animal id): 177	> 256
isolate (source animal id): 178	> 256
isolate (source animal id): 179	≤ 256
isolate (source animal id): 180	> 256
isolate (source animal id): 181	> 256
isolate (source animal id): 182	> 256
isolate (source animal id): 183	> 256
isolate (source animal id): 184	> 256
isolate (source animal id): 185	> 256
isolate (source animal id): 186	≤ 256
isolate (source animal id): 187	> 256
isolate (source animal id): 188	> 256

CO/N=C(\C(=O)N[C@@H]1C(=O)N2C(C(=O)O)=C(CSC(=O)c3ccco3)CS[C@H]12)c1csc(N)n1 [Ceftiofur]
Conditions	minimum inhibitory concentration [µg/mL]
isolate (source animal id): 8	0.5 (≈ 0.955 µM)
isolate (source animal id): 9	1 (≈ 1.91 µM)
isolate (source animal id): 10	≤ 0.25
isolate (source animal id): 11	≤ 0.25
isolate (source animal id): 12	0.5 (≈ 0.955 µM)
isolate (source animal id): 13	> 8
isolate (source animal id): 14	> 8
isolate (source animal id): 15	≤ 0.25
isolate (source animal id): 16	0.5 (≈ 0.955 µM)
isolate (source animal id): 98	0.5 (≈ 0.955 µM)
isolate (source animal id): 99	0.5 (≈ 0.955 µM)
isolate (source animal id): 100	≤ 0.25
isolate (source animal id): 101	≤ 0.25
isolate (source animal id): 102	0.5 (≈ 0.955 µM)
isolate (source animal id): 103	0.5 (≈ 0.955 µM)
isolate (source animal id): 104	≤ 0.25
isolate (source animal id): 105	0.5 (≈ 0.955 µM)
isolate (source animal id): 106	0.5 (≈ 0.955 µM)
isolate (source animal id): 107	≤ 0.25
isolate (source animal id): 108	≤ 0.25
isolate (source animal id): 109	≤ 0.25
isolate (source animal id): 110	0.5 (≈ 0.955 µM)
isolate (source animal id): 111	≤ 0.25
isolate (source animal id): 112	≤ 0.25
isolate (source animal id): 113	0.5 (≈ 0.955 µM)
isolate (source animal id): 114	0.5 (≈ 0.955 µM)
isolate (source animal id): 115	4 (≈ 7.64 µM)
isolate (source animal id): 116	0.5 (≈ 0.955 µM)
isolate (source animal id): 117	≤ 0.25
isolate (source animal id): 118	0.5 (≈ 0.955 µM)
isolate (source animal id): 119	1 (≈ 1.91 µM)
isolate (source animal id): 120	0.5 (≈ 0.955 µM)
isolate (source animal id): 121	0.5 (≈ 0.955 µM)
isolate (source animal id): 122	0.5 (≈ 0.955 µM)
isolate (source animal id): 123	≤ 0.25
isolate (source animal id): 124	0.5 (≈ 0.955 µM)
isolate (source animal id): 125	0.5 (≈ 0.955 µM)
isolate (source animal id): 126	0.5 (≈ 0.955 µM)
isolate (source animal id): 127	0.5 (≈ 0.955 µM)
isolate (source animal id): 128	8 (≈ 15.3 µM)
isolate (source animal id): 129	0.5 (≈ 0.955 µM)
isolate (source animal id): 130	0.5 (≈ 0.955 µM)
isolate (source animal id): 131	0.5 (≈ 0.955 µM)
isolate (source animal id): 132	> 8
isolate (source animal id): 133	0.5 (≈ 0.955 µM)
isolate (source animal id): 134	0.5 (≈ 0.955 µM)
isolate (source animal id): 135	0.5 (≈ 0.955 µM)
isolate (source animal id): 136	0.5 (≈ 0.955 µM)
isolate (source animal id): 137	0.5 (≈ 0.955 µM)
isolate (source animal id): 138	≤ 0.25
isolate (source animal id): 139	≤ 0.25
isolate (source animal id): 140	0.5 (≈ 0.955 µM)
isolate (source animal id): 141	0.5 (≈ 0.955 µM)
isolate (source animal id): 142	0.5 (≈ 0.955 µM)
isolate (source animal id): 143	2 (≈ 3.82 µM)
isolate (source animal id): 144	8 (≈ 15.3 µM)
isolate (source animal id): 145	0.5 (≈ 0.955 µM)
isolate (source animal id): 146	≤ 0.25
isolate (source animal id): 147	8 (≈ 15.3 µM)
isolate (source animal id): 148	≤ 0.25
isolate (source animal id): 149	≤ 0.25
isolate (source animal id): 150	0.5 (≈ 0.955 µM)
isolate (source animal id): 151	≤ 0.25
isolate (source animal id): 152	≤ 0.25
isolate (source animal id): 153	≤ 0.25
isolate (source animal id): 154	0.5 (≈ 0.955 µM)
isolate (source animal id): 155	≤ 0.25
isolate (source animal id): 156	8 (≈ 15.3 µM)
isolate (source animal id): 157	0.5 (≈ 0.955 µM)
isolate (source animal id): 158	0.5 (≈ 0.955 µM)
isolate (source animal id): 159	≤ 0.25
isolate (source animal id): 160	≤ 0.25
isolate (source animal id): 161	≤ 0.25
isolate (source animal id): 162	8 (≈ 15.3 µM)
isolate (source animal id): 163	0.5 (≈ 0.955 µM)
isolate (source animal id): 164	≤ 0.25
isolate (source animal id): 165	≤ 0.25
isolate (source animal id): 166	≤ 0.25
isolate (source animal id): 167	0.5 (≈ 0.955 µM)
isolate (source animal id): 168	≤ 0.25
isolate (source animal id): 169	0.5 (≈ 0.955 µM)
isolate (source animal id): 170	0.5 (≈ 0.955 µM)
isolate (source animal id): 171	0.5 (≈ 0.955 µM)
isolate (source animal id): 172	≤ 0.25
isolate (source animal id): 173	0.5 (≈ 0.955 µM)
isolate (source animal id): 174	0.5 (≈ 0.955 µM)
isolate (source animal id): 175	0.5 (≈ 0.955 µM)
isolate (source animal id): 176	0.5 (≈ 0.955 µM)
isolate (source animal id): 177	8 (≈ 15.3 µM)
isolate (source animal id): 178	0.5 (≈ 0.955 µM)
isolate (source animal id): 179	≤ 0.25
isolate (source animal id): 180	0.5 (≈ 0.955 µM)
isolate (source animal id): 181	≤ 0.25
isolate (source animal id): 182	0.5 (≈ 0.955 µM)
isolate (source animal id): 183	0.5 (≈ 0.955 µM)
isolate (source animal id): 184	0.5 (≈ 0.955 µM)
isolate (source animal id): 185	0.5 (≈ 0.955 µM)
isolate (source animal id): 186	0.5 (≈ 0.955 µM)
isolate (source animal id): 187	≤ 0.25
isolate (source animal id): 188	> 8
